Where a name gives a salt, the structure may show the parent alone.
Assays:
[1] = in vivo; cited from earlier work
[2] = Wistar rats
[3] = 1 mg/kg bolus iv (jugular vein), serum, HPLC-MS/MS, mean ± SD, n = 6 rats, SD
[4] = 1 mg/kg bolus iv, mean ± SD, n = 6 rats, SD

SMILES | detection in ISF [1] | Cmax, Serum [2, 3] | Tmax, Serum [2, 3] | delay in time to peak vancomycin concentration (Tmax) in ISF compared to serum ([2]; 1 mg/kg bolus iv, Student's t-test p < 0.05) | AUC Ratio (ISF:serum) [2, 4] | Cmax Ratio (ISF:serum) [2, 4] | Tmax Ratio (ISF:serum) [2, 4]
O=C1NC(=O)C(c2ccccc2)(c2ccccc2)N1 [phenytoin] | not detectable | – | – | – | – | – | –
CN[C@H](CC(C)C)C(=O)N[C@H]1C(=O)N[C@@H](CC(N)=O)C(=O)N[C@H]2C(=O)N[C@H]3C(=O)N[C@H](C(=O)N[C@H](C(=O)O)c4cc(O)cc(O)c4-c4cc3ccc4O)[C@H](O)c3ccc(c(Cl)c3)Oc3cc2cc(c3O[C@@H]2O[C@H](CO)[C@@H](O)[C@H](O)[C@H]2O[C@H]2C[C@](C)(N)[C@H](O)[C@H](C)O2)Oc2ccc(cc2Cl)[C@H]1O [vancomycin, Vancomycin hydrochloride] | – | 2600 ± 600 ng/mL | 10 ± 0 min | ~ 17 min | 1.3 ± 0.2 | 0.9 ± 0.2 | 2.7 ± 1.6
